Reference: the supplement of paper PMC10307832

Tests used:
Assay in all cases: relative viability (nuclei count vs DMSO), 5 days (fraction); higher = more cells survive
[1] = compound: CS(=O)(=O)N1CCN(Cc2cc3nc(-c4cccc5[nH]ncc45)nc(N4CCOCC4)c3s2)CC1 [Pictilisib] + N=C(N)NC(=N)NCCc1ccccc1 [Phenformin] (partner 250 µM)
Outline: (§1)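 Relative viability equals treated-well nuclei counts divided by vehicle-well nuclei counts. Counts came from 4× images of lung cancer cell lines grown in 1536-well plates for 5 days after pin-tool dosing on the day after seeding. Dosing used one drug alone or a fixed anchor-drug dose plus five library-drug doses (not always all listed) in √10 steps, and values are medians of duplicate plates.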

[2] = compound: NC1(c2ccc(-c3nc4ccn5c(=O)[nH]nc5c4cc3-c3ccccc3)cc2)CCC1 [MK-2206] + C[C@]1(O)C[C@@H](c2nc(-c3ccc4ccc(-c5ccccc5)nc4c3)c3c(N)nccn32)C1 [Linsitinib] (partner 1 µM)
Outline: as §1

[3] = compound: NC1(c2ccc(-c3nc4ccn5c(=O)[nH]nc5c4cc3-c3ccccc3)cc2)CCC1 [MK-2206] + O=C(CCCCCCC(=O)Nc1ccccc1)NO [Vorinostat] (partner 1 µM)
Outline: as §1

[4] = compound: CS(=O)(=O)N1CCN(Cc2cc3nc(-c4cccc5[nH]ncc45)nc(N4CCOCC4)c3s2)CC1 [Pictilisib] + Cc1cc(Nc2cc(N3CCN(C)CC3)nc(Sc3ccc(NC(=O)C4CC4)cc3)n2)n[nH]1 [Tozasertib] (partner 0.1 µM)
Outline: as §1

[5] = compound: CS(=O)(=O)N1CCN(Cc2cc3nc(-c4cccc5[nH]ncc45)nc(N4CCOCC4)c3s2)CC1 [Pictilisib] + CC(C)C[C@H](NC(=O)[C@H](Cc1ccccc1)NC(=O)c1cnccn1)B(O)O [Bortezomib] (partner 0.002 µM)
Outline: as §1

| Cell Line | relative viability ([1]; first compound 0.02 µM) | relative viability ([1]; first compound 0.06325 µM) | relative viability ([1]; first compound 0.6325 µM) | relative viability ([1]; first compound 2 µM) | relative viability ([2]; first compound 0.01 µM) | relative viability ([2]; first compound 0.03162 µM) | relative viability ([2]; first compound 0.3162 µM) | relative viability ([2]; first compound 1 µM) | relative viability ([3]; first compound 0.01 µM) | relative viability ([3]; first compound 0.03162 µM) | relative viability ([3]; first compound 0.3162 µM) | relative viability ([3]; first compound 1 µM) | relative viability ([4]; first compound 0.02 µM) | relative viability ([4]; first compound 0.06325 µM) | relative viability ([4]; first compound 0.6325 µM) | relative viability ([4]; first compound 2 µM) | relative viability ([5]; first compound 0.02 µM) | relative viability ([5]; first compound 0.06325 µM) | relative viability ([5]; first compound 0.6325 µM) | relative viability ([5]; first compound 2 µM) |
| --- | --- | --- | --- | --- | --- | --- | --- | --- | --- | --- | --- | --- | --- | --- | --- | --- | --- | --- | --- | --- |
| NCI-H727 | 0.564 | 0.529 | 0.554 | 0.38 | 0.308 | 0.313 | 0.244 | 0.27 | 1.18 | 1.33 | 1.25 | 0.901 | 0.614 | 0.542 | 0.568 | 0.486 | 0.992 | 0.941 | 0.784 | 0.609 |
| NCI-H838 | 0.541 | 0.628 | 0.329 | 0.224 | 1 | 1.03 | 1.02 | 0.95 | 0.705 | 0.714 | 0.647 | 0.654 | 0.266 | 0.218 | 0.242 | 0.149 | 0.77 | 0.744 | 0.606 | 0.313 |
| NCI-H1355 | 0.493 | 0.467 | 0.393 | 0.248 | 0.768 | 0.805 | 0.726 | 0.786 | 0.598 | 0.667 | 0.541 | 0.49 | 0.582 | 0.474 | 0.484 | 0.183 | 1.23 | 1.2 | 1.14 | 0.678 |
| NCI-H1437 | 0.315 | 0.321 | 0.256 | 0.297 | 0.99 | 1.08 | 0.948 | 0.951 | 0.879 | 0.846 | 0.964 | 0.821 | 0.383 | 0.41 | 0.324 | 0.242 | 0.582 | 0.488 | 0.532 | 0.231 |
| NCI-H1651 | 0.331 | 0.36 | 0.268 | 0.261 | 0.906 | 0.915 | 0.874 | 0.937 | 0.568 | 0.583 | 0.597 | 0.461 | 0.637 | 0.567 | 0.544 | 0.286 | 0.948 | 0.939 | 0.911 | 0.707 |
| NCI-H1666 | 0.576 | 0.615 | 0.522 | 0.462 | 0.753 | 0.73 | 0.695 | 0.709 | 1.03 | 1.07 | 1.04 | 0.916 | 0.628 | 0.599 | 0.627 | 0.483 | 0.854 | 0.744 | 0.545 | 0.388 |
| NCI-H1734 | 0.427 | 0.362 | 0.271 | 0.197 | 0.816 | 0.934 | 0.632 | 0.584 | 0.877 | 0.822 | 0.629 | 0.67 | 0.254 | 0.275 | 0.226 | 0.193 | 0.995 | 0.903 | 0.585 | 0.335 |
| NCI-H1755 | 0.654 | 0.594 | 0.401 | 0.357 | 0.997 | 0.996 | 0.903 | 0.876 | 0.774 | 0.698 | 0.582 | 0.636 | 0.548 | 0.605 | 0.475 | 0.356 | 1.01 | 0.906 | 0.86 | 0.339 |
| NCI-H1915 | 0.392 | 0.367 | 0.365 | 0.361 | 1.12 | 1.07 | 1.04 | 1.09 | 0.567 | 0.511 | 0.483 | 0.534 | 0.433 | 0.432 | 0.405 | 0.308 | 0.981 | 1.03 | 0.606 | 0.9 |
| NCI-H1975 | 0.431 | 0.387 | 0.25 | 0.177 | 1.02 | 0.81 | 0.679 | 0.72 | 0.712 | 0.63 | 0.572 | 0.522 | 0.821 | 0.691 | 0.361 | 0.107 | 0.358 | 0.443 | 0.284 | 0.239 |
| NCI-H1993 | 0.527 | 0.504 | 0.626 | 0.573 | 0.681 | 0.811 | 0.704 | 0.71 | 0.765 | 0.962 | 0.611 | 0.504 | 0.483 | 0.567 | 0.5 | 0.529 | 0.984 | 1.04 | 0.601 | 0.448 |
| NCI-H2009 | 0.501 | 0.504 | 0.438 | 0.365 | 1.15 | 1.16 | 1.16 | 1.02 | 0.759 | 0.739 | 0.708 | 0.766 | 0.719 | 0.736 | 0.75 | 0.461 | 1.06 | 1.05 | 0.871 | 0.671 |
| NCI-H2023 | 0.43 | 0.376 | 0.275 | 0.169 | 0.642 | 0.586 | 0.438 | 0.312 | 0.54 | 0.428 | 0.431 | 0.391 | 0.416 | 0.403 | 0.197 | 0.0836 | 1.17 | 0.764 | 0.511 | 0.223 |
| NCI-H2085 | 0.725 | 0.688 | 0.387 | 0.291 | 0.915 | 0.85 | 0.815 | 0.692 | 0.693 | 0.754 | 0.751 | 0.653 | 0.765 | 0.733 | 0.52 | 0.3 | 1.08 | 1.07 | 0.871 | 0.467 |
| NCI-H2087 | 0.483 | 0.439 | 0.468 | 0.28 | 0.965 | 0.906 | 0.791 | 0.914 | 0.469 | 1.1 | 0.791 | 0.862 | 0.232 | 0.228 | 0.168 | 0.187 | 0.733 | 0.772 | 0.953 | 0.503 |
| NCI-H2126 | 0.49 | 0.501 | 0.38 | 0.31 | 0.742 | 0.634 | 0.63 | 0.686 | 0.718 | 0.789 | 0.608 | 0.623 | 0.826 | 0.807 | 0.73 | 0.517 | 1.05 | 1.15 | 1.07 | 0.923 |
